Assay [1] concerns the target T1, Human Calpain 2/NS1 (Homo sapiens, UniProt P17655).
T1 sequence (P17655 1-700): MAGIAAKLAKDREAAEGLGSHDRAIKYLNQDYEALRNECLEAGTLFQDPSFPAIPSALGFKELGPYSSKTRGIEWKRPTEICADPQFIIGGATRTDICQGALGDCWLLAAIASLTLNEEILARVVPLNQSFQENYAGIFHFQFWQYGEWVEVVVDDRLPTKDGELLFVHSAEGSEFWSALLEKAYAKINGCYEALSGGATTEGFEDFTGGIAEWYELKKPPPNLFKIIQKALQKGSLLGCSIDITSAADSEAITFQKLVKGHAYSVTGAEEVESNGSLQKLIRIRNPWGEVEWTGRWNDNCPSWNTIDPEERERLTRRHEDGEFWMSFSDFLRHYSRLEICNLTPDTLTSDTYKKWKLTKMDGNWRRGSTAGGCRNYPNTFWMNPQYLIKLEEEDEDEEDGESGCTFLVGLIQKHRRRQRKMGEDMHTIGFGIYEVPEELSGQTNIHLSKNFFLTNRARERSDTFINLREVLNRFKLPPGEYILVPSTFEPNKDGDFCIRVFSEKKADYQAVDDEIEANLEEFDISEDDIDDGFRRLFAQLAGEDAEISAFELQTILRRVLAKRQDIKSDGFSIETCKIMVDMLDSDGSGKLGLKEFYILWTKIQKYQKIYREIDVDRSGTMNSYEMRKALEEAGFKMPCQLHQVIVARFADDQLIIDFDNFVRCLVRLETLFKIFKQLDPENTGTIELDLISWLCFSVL
T1 sequence (P04632 1-268 partner): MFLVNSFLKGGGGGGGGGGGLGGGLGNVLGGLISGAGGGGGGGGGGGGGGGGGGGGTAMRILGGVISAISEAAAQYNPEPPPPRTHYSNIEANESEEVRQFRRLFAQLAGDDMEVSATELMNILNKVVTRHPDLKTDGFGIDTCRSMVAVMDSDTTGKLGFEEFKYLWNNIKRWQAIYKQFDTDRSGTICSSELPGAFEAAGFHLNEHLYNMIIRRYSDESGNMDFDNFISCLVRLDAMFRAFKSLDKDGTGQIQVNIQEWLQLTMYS
The assay is described as follows: Calpain inhibition continuous fluorescence (FRET) assay, Human Calpain 2/NS1. Conditions: read-out: Human Calpain 2/NS1 IC50. The class given is biochemical. The essentials:
(§1)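 Human calpains 1, 2 and 9 preincubated with inhibitor at 25 °C in 50 mM Tris pH 7.5, 100 mM NaCl, 1 mM DTT; reaction started with 5-FAM/QXL 520 FRET peptide plus CaCl2 for activation. Fluorescence (490/520 nm) followed 10 min; rates from 1-5 min slopes fitted to 4-parameter logistic for IC50.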

Assay [2] concerns Calpain activity in SH-SY5Y cells (SBDP-150). The experiment in a line: SH-SY5Y Spectrin western blot assay (SBDP-150 breakdown product, A23187-induced). It is filed as cell-based. Conditions: SH-SY5Y cells, read-out: SH-SY5Y Spectrin IC50. In general terms: A western blot detects proteins with antibodies after separation by electrophoresis.
For assay [3], the target named is T2, Human Calpain 1/NS1 (Homo sapiens, UniProt P07384).
T2 sequence (P07384 1-714): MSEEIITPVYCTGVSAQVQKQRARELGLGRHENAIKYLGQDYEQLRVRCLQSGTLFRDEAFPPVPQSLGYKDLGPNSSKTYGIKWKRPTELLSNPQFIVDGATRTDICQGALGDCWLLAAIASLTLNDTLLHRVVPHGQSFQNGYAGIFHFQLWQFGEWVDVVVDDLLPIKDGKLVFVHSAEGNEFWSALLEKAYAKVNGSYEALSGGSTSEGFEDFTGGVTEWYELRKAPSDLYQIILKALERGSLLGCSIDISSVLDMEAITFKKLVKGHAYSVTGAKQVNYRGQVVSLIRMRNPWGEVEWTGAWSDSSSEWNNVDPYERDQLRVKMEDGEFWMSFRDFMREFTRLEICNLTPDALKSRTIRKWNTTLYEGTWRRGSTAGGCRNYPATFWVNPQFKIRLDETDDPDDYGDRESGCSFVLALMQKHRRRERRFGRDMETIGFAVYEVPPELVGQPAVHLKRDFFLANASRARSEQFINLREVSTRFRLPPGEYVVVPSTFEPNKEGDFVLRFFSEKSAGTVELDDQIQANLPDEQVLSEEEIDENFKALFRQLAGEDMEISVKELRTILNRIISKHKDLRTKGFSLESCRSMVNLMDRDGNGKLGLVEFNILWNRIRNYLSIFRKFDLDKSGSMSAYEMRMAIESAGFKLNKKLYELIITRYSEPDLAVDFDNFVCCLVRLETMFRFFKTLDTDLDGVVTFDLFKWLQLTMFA
T2 sequence (P04632 1-268 partner): T1 sequence (P04632 1-268 partner)
The assay is described as follows: Calpain inhibition continuous fluorescence (FRET) assay, Human Calpain 1/NS1. Conditions: read-out: Human Calpain 1/NS1 IC50. The class given is biochemical. The method, boiled down: as §1

The target in assay [4] is T3, Human Calpain 9/NS1 (Homo sapiens, UniProt O14815).
T3 sequence (O14815 1-690): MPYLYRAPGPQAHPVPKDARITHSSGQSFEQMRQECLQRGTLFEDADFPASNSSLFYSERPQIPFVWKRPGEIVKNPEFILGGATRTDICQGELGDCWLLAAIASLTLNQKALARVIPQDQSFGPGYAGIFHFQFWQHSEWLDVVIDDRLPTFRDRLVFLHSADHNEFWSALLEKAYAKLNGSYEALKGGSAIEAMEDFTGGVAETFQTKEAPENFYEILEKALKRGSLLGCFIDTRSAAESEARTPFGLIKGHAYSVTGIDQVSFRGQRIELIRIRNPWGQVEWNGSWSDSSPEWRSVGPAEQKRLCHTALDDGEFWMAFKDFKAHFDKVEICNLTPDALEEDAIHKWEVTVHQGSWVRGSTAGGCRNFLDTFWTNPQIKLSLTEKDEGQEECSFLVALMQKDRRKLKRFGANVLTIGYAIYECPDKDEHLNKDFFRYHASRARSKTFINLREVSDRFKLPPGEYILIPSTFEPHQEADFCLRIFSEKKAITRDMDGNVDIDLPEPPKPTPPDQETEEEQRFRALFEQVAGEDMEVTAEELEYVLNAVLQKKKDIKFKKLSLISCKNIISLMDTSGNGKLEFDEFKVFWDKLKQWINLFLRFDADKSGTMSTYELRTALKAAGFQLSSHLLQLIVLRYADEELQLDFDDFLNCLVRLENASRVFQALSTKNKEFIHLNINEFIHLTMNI
T3 sequence (P04632 1-268 partner): T1 sequence (P04632 1-268 partner)
The experiment in a line: Calpain inhibition continuous fluorescence (FRET) assay, Human Calpain 9/NS1. The settings on record: read-out: Human Calpain 9/NS1 IC50. It is filed as biochemical. The essentials: as §1

The subject of assay [5] is Calpain activity in SH-SY5Y cells. The experiment in a line: SH-SY5Y + AMC fluorescence assay (Suc-LLVY-AMC substrate). It is filed as cell-based. Conditions: read-out: SH-SY5Y + AMC IC50.
The mark [6] stands for this setting: Homo sapiens, Column D, A23187-induced SBDP-150.
[7] abbreviates: Homo sapiens, A23187-induced SBDP-150, western blot.

Like-named read-outs stand apart in the source and are kept apart here.

Take `Cn1ncc(C(=O)N[C@@H](Cc2ccccc2)C(=O)C(N)=O)c1-c1ccncn1` [Compound 175, (S)—N-(4-amino-3,4-dioxo-1-phenylbutan-2-yl)-1-methyl-5-(pyrimidin-4-yl)-1H-pyrazole-4-carboxamide]: the IC50 in assay [1] (Column B) is below 3 µM; in assay [2] (setting [6]), above 25 µM; in assay [3] (Column A), below 3 µM; in assay [4] (Column C), below 3 µM; in assay [5] (Column E) it was below 10 µM.
Take `CC#Cc1nn(-c2ccccc2)cc1C(=O)NC(Cc1ccccc1)C(=O)C(N)=O` (stereo not drawn) [Compound 562, N-(4-amino-3,4-dioxo-1-phenylbutan-2-yl)-1-phenyl-3-(prop-1-yn-1-yl)-1H-pyrazole-4-carb oxamide]: the IC50 was above 10 µM in assay [1]; above 25 µM in assay [2] (setting [7]); above 10 µM in assay [3]; above 10 µM in assay [4]; below 10 µM in assay [5].
`Cc1ccc(-n2nc(C)cc2C(=O)N[C@@H](Cc2ccccc2)C(=O)C(N)=O)nc1` [Compound 120, (S)—N-(4-amino-3,4-dioxo-1-phenylbutan-2-yl)-3-methyl-1-(5-methylpyridin-2-yl)-1H-pyrazole-5-carboxamide]: the IC50 in assay [1] (Column B) was below 3 µM; in assay [2] (setting [6]) it was below 10 µM; in assay [3] (Column A), below 3 µM; in assay [4] (Column C), below 3 µM; in assay [5] (Column E), 10 to 25 µM.
For `Cc1occ(C(=O)N[C@@H](Cc2ccccc2)C(=O)C(N)=O)c1-c1ccccc1` [Compound 430, (S)—N-(4-amino-3,4-dioxo-1-phenylbutan-2-yl)-5-methyl-4-phenylfuran-3-carboxamide], the IC50 in assay [1] was below 3 µM; in assay [2] (setting [7]) it was below 10 µM; in assay [3], below 3 µM; in assay [4], below 3 µM; in assay [5], below 10 µM.
For `CCc1cc(C(=O)N[C@@H](Cc2ccccc2)C(=O)C(N)=O)n(-c2ccccc2)n1` [Compound 33, (S)—N-(4-amino-3,4-dioxo-1-phenylbutan-2-yl)-3-ethyl-1-phenyl-1H-pyrazole-5-carboxamide], the IC50 in assay [1] (Column B) is below 3 µM; in assay [2] (setting [6]), below 10 µM; in assay [3] (Column A), below 3 µM; in assay [4] (Column C) it was below 3 µM; in assay [5] (Column E), below 10 µM.
Turning to `NC(=O)C(=O)C(Cc1ccccc1)NC(=O)c1cn(C(F)F)nc1-c1cc(F)ccc1F` (stereo not drawn) [Compound 552, N-(4-amino-3,4-dioxo-1-phenylbutan-2-yl)-1-(difluoromethyl)-3-(2,5-difluorophenyl)-1H-pyrazole-4-carboxamide], the IC50 in assay [1] was below 3 µM; in assay [2] (setting [7]), below 10 µM; in assay [3], below 3 µM; in assay [4], below 3 µM; in assay [5], below 10 µM.
`Cc1nc(-c2ccccc2)c(C(=O)N[C@@H](Cc2ccccc2)C(=O)C(N)=O)o1` [Compound 26, (S)—N-(4-amino-3,4-dioxo-1-phenylbutan-2-yl)-2-methyl-4-phenyloxazole-5-carboxamide]: the IC50 is below 3 µM in assay [1] (Column B); below 10 µM in assay [2] (setting [6]); below 3 µM in assay [3] (Column A); below 3 µM in assay [4] (Column C); below 10 µM in assay [5] (Column E).
As for `NC(=O)C(=O)[C@H](Cc1ccccc1)NC(=O)c1conc1-c1ccc(F)cc1` [Compound 289, (S)—N-(4-amino-3,4-dioxo-1-phenylbutan-2-yl)-3-(4-fluorophenyl)isoxazole-4-carboxamide], the IC50 in assay [1] (Column B) is below 3 µM; in assay [2] (setting [6]) it was 10 to 25 µM; in assay [3] (Column A), below 3 µM; in assay [4] (Column C) it was below 3 µM; in assay [5] (Column E), above 25 µM.
With `Cc1cc(C(=O)N[C@@H](Cc2ccccc2)C(=O)C(N)=O)n(-c2ccc(-c3cccc(F)c3)cc2)n1` [Compound 216, (S)—N-(4-amino-3,4-dioxo-1-phenylbutan-2-yl)-1-(3′-fluoro-[1,1′-biphenyl]-4-yl)-3-methyl-1H-pyrazole-5-carboxamide], the IC50 in assay [1] (Column B) was below 3 µM; in assay [2] (setting [6]), below 10 µM; in assay [3] (Column A), below 3 µM; in assay [4] (Column C), below 3 µM; in assay [5] (Column E), above 25 µM.
As to `C#Cc1nccc(-n2nc(C)cc2C(=O)N[C@@H](Cc2ccccc2)C(=O)CF)n1` [Compound 433, (S)-1-(2-ethynylpyrimidin-4-yl)-N-(4-fluoro-3-oxo-1-phenylbutan-2-yl)-3-methyl-1H-pyrazole-5-carboxamide], the IC50 in assay [1] is 3 to 10 µM; in assay [2] (setting [7]) it was 10 to 25 µM; in assay [3] it was 3 to 10 µM; in assay [4] it was above 10 µM; in assay [5], above 25 µM.
Take `NC(=O)C(=O)[C@H](Cc1ccccc1)NC(=O)c1cncn1-c1ccccn1` [Compound 24, (S)—N-(4-amino-3,4-dioxo-1-phenylbutan-2-yl)-1-(pyridin-2-yl)-1H-imidazole-5-carboxamide]: the IC50 in assay [1] (Column B) was below 3 µM; in assay [2] (setting [6]), above 25 µM; in assay [3] (Column A), below 3 µM; in assay [4] (Column C), below 3 µM; in assay [5] (Column E), above 25 µM.
With “N-(4-amino-3,4-dioxo-1-phenylbutan-2-yl)-3-(5-fluoropyridin-3-yl)-1-methyl-1H-pyrazole-4-carboxamide [Compound 506]”, the IC50 in assay [1] is below 3 µM; in assay [2] (A23187-induced SBDP-150, western blot), 10 to 25 µM; in assay [3], below 3 µM; in assay [4] it was below 3 µM; in assay [5], 10 to 25 µM.

(Values after patent US11339130B1 (Blade Therapeutics, Inc., priority 2016, dated 2022).)
